Results as given in patent publication US6541471B1, “Benzenesulphonamide compounds” (Les Laboratoires Servier, priority 2001, dated 2003).
pIC50: −log10 of the molar value.

Legend:
[1] = system: platelet aggregation produced by 5-hydroxytryptamine in human platelet-rich plasma (PRP); assay: Platelet aggregation in man induced by 5-hydroxytryptamine; format: cell-based; details: 5-hydroxytryptamine 10 μM in the presence of 0.3 μM adenosine diphosphate and 1 μM adrenalin, read-out: IC50, inhibition of platelet aggregation produced by 5-hydroxytryptamine
Description: (§1) Venous blood is obtained from human volunteers who have not taken aspirin for at least 14 days prior to the experiment. The blood is removed over sodium citrate (0.109 M) (1 vol. of citrate over 9 vol. of blood). Platelet-rich plasma (PRP) is obtained by centrifugation (20° C.) at 200 g for 10 minutes. The number of platelets is on average 250000 PL/mm^3. The PRP is stored at room temperature until the test and is used within 2 hours of having been taken. The TXA2 agonist U46619 is used at a concentration of 1 μM and 5-hydroxytryptamine is used at a concentration of 10 μM, the latter in the presence of 0.3 μM adenosine diphosphate and 1 μM adrenalin.

[2] = system: platelet aggregation induced by the TXA2 agonist U46619 in human platelet-rich plasma (PRP); assay: Platelet aggregation in man induced by the TXA2 agonist U46619; format: cell-based; details: U46619 1 μM, read-out: IC50, inhibition of platelet aggregation induced by the TXA2 agonist
Description: as §1

CN(C)CCCOc1ccccc1CCc1cc(CCNS(=O)(=O)c2ccc(Cl)cc2)cc(CCC(=O)O)c1 [Example 2, 3-[3-(2-{[(4-Chlorophenyl)sulphonyl]amino}ethyl)-5-(2-{2-[3-(dimethylamino)propoxy]phenyl}ethyl)phenyl]propanoic acid]
pIC50 [1]: 6.02
pIC50 [2]: 5.48
